Counter-ions that a name gives are not always drawn.
Question: Which melting point does the source give for `c1ccc(CC2(c3ccc4[nH]ccc4c3)CCNC2)nc1` (centres unmarked) here?
Answer: 169.9 to 171.1 °C

Question: With `c1ccc(CC2(c3ccc4sccc4c3)CCNC2)cc1` (centres unmarked) (as salt: hydrochloride) as the compound, how does the melting point read?
Answer: 120.9 to 123 °C

Reference: patent publication US20110021556A1, “PYRROLIDINYL DERIVATIVES AND USES THEREOF” (Hoffman-La Roche, Inc., priority 2008, published 2011)
